Assay results published in patent US20230212131A1, “COLLAGEN 1 TRANSLATION INHIBITORS AND METHODS OF USE THEREOF” (Anima Biotech Inc., priority 2020, published 2023).

tested on: collagen 1 (COL1); assay: WI-38 collagen 1 inhibition assay; format: cell-based, human; conditions: Cellular EC50, WI-38 cells; values are classes of LogEC50
Source text: All compounds were profiled for cellular potency in inhibition of collagen 1 (COL1) protein translation using a phenotypic screening platform.
WI-38 cells (ATCC® CCL-75™) were maintained in MEM EAGLE (NEAA) W. GLUTAMIN (Biological Industries, Cat. 06-1040-15-1A) containing 10% fetal bovine serum (FBS) and 1% Penicillin-Streptomycin Solution. To synchronize the cells (cell cycle synchronization) prior to induction of collagen synthesis, the cells were starved using DMEM-low glucose supplemented with 0.25% FBS for two hours and then without FBS for 24 hours. To induce collagen synthesis, the cells were treated with a collagen induction cocktail for the indicated time. Compounds were added with induction.
Cells in 96-well or 384-well plates were fixed for 20 min in 4% paraformaldehyde (PFA, ENCO, Cat. sc-281692). Following two washes with 1×PBS, cells were treated with hydrogen peroxide (Acros, Cat: 7722-84-1) for 10 minutes and then washed twice with 1×PBS. Cells were then incubated over-night at 4° C. with Anti-Collagen I (Sigma-Aldrich, Cat: C 2456) antibody and washed three times with 1×PBS. Cells were then incubated with a suitable secondary fluorescently-tagged antibody and nuclei stained with DAPI, for 1 hour, and then washed 3 times with 1×PBS.
Cell images were taken with Operetta (Perkin Elmer, USA), a wide-field fluorescence microscope at 20× magnification. After acquisition, the images were transferred to Columbus software (Perkin-Elmer) for image analysis. In Columbus, cells were identified by their nucleus, using the “Find Nuceli” module and cytoplasm was detected based on the secondary antibody channel. Subsequently, the fluorescent signal was enumerated in the identified cell region. Data was exported to a data analysis and visualization software, Tibco Spotfire, USA.

SMILES | COL1 Efficacy (LogEC50)
C[C@H]1COCCN1c1ccc(C(=O)Nc2nc(-c3ccccc3Cl)cs2)nc1 [compound 464, (S)—N-(4-(2-chlorophenyl)thiazol-2-yl)-5-(3-methylmorpholino)picolinamide] | +++ (+++: <−6)
O=C(Nc1nc(-c2ccccc2Cl)cs1)c1ccc(N2CCOCC2)nc1 [compound 346, N-[4-(2-chlorophenyl)thiazol-2-yl]-6-morpholino-pyridine-3-carboxamide] | +++ (+++: <−6)
COc1ccc(C(=O)Nc2nc(-c3cccnc3OC)cs2)cc1 [Compound 332, 4-methoxy-N-[4-(2-methoxy-3-pyridyl)thiazol-2-yl]benzamide] | ++ (++: −5 to −6)
CN(C)CCC(=O)N1CCN(c2ccc(C(=O)Nc3nc(-c4ccccc4Cl)cs3)nc2)CC1 [Compound 444, N-(4-(2-chlorophenyl)thiazol-2-yl)-5-(4-(3-(dimethylamino)propanoyl)piperazin-1-yl)picolinamide] | +++ (+++: <−6)
O=C(Nc1nc(-c2ccccc2Cl)cs1)c1ccc(C2CCOCC2)cn1 [Compound 381, N-(4-(2-chlorophenyl)thiazol-2-yl)-5-(tetrahydro-2H-pyran-4-yl)picolinamide] | +++ (+++: <−6)
O=C(Nc1nc(-c2ccccc2Cl)cs1)c1ccc(N2CCC[C@@H](O)C2)cn1 [compound 487, (R)—N-(4-(2-chlorophenyl)thiazol-2-yl)-5-(3-hydroxypiperidin-1-yl)picolinamide] | +++ (+++: <−6)
O=C(Nc1nc(-c2ccccc2Cl)cs1)C1CC(C(=O)N2CCOCC2)C1 (centres unmarked) [compound 426] | − (−: inactive)
O=C(Nc1nc(-c2ccccc2Cl)cs1)C12CC(C(=O)N3CCOCC3)(C1)C2 [compound 420] | + (+: >−5)
CC(=O)N1CCN(c2cnc(C(=O)Nc3nc(-c4ccccc4Cl)cs3)c(C)c2)CC1 [compound 458, 5-(4-acetylpiperazin-1-yl)-N-(4-(2-chlorophenyl)thiazol-2-yl)-3-methylpicolinamide] | +++ (+++: <−6)
CN1CCCC(C(=O)N2CCN(c3ccc(C(=O)Nc4nc(-c5ccccc5Cl)cs4)nc3)CC2)C1 (centres unmarked) [Compound 467, N-(4-(2-chlorophenyl)thiazol-2-yl)-5-(4-(1-methylpiperidine-3-carbonyl)piperazin-1-yl)picolinamide hemiformate] | +++ (+++: <−6)
COCCOc1ccccc1-c1csc(NC(=O)c2ccc(OC)cc2)n1 [Compound 328, 4-methoxy-N-[4-[2-(2-methoxyethoxy)phenyl]thiazol-2-yl]benzamide] | ++ (++: −5 to −6)
CN1CC2(C1)CN(c1ccc(C(=O)Nc3nc(-c4ccccc4Cl)cs3)nc1)C2 [compound 459] | − (−: inactive)
C#CCCC1(CCN2CCN(c3ccc(C(=O)Nc4nc(-c5ccccc5Cl)cs4)cc3)CC2)N=N1 [compound 484, 4-(4-(2-(3-(but-3-yn-1-yl)-3H-diazirin-3-yl)ethyl)piperazin-1-yl)-N-(4-(2-chlorophenyl)thiazol-2-yl)benzamide hemiformate] | +++ (+++: <−6)
COc1ccc(C(=O)Nc2nc(-c3cc(Cl)cc(Cl)c3)cs2)cc1 [Compound 315, N-(4-(3,5-dichlorophenyl)thiazol-2-yl)-4-methoxybenzamide] | +++ (+++: <−6)
NC1CCN(c2ccc(C(=O)Nc3nc(-c4ccccc4Cl)cs3)nc2)CC1 [compound 475, 5-(4-aminopiperidin-1-yl)-N-(4-(2-chlorophenyl)thiazol-2-yl)picolinamide] | +++ (+++: <−6)
O=C(Nc1nc(-c2ccccc2Cl)cs1)c1ccc(N2CCC(CCO)CC2)cn1 [compound 478, N-(4-(2-chlorophenyl)thiazol-2-yl)-5-(4-(2-hydroxyethyl)piperidin-1-yl)picolinamide] | +++ (+++: <−6)

SMILES | COL1 Efficacy (LogEC50)
COc1ccc(C(=O)Nc2nc(-c3ccc(C)cc3C)cs2)cc1 [Compound 301, N-(4-(2,4-dimethylphenyl)thiazol-2-yl)-4-methoxybenzamide] | +++ (+++: <−6)
O=C(Nc1nc(-c2ccccc2Cl)cs1)c1ccc(N2CCC[C@H](O)C2)cn1 [compound 488, (S)—N-(4-(2-chlorophenyl)thiazol-2-yl)-5-(3-hydroxypiperidin-1-yl)picolinamide] | +++ (+++: <−6)
O=C(Nc1nc(-c2ccccc2Cl)cs1)c1ccc(N2CCN(C(=O)CO)CC2)cn1 [Compound 445, N-(4-(2-chlorophenyl)thiazol-2-yl)-5-(4-(2-hydroxyacetyl)piperazin-1-yl)picolinamide] | +++ (+++: <−6)
CC(C)=CC(=O)Nc1nc(-c2cc(Cl)sc2Cl)cs1 [compound 314] | ++ (++: −5 to −6)
O=C(Nc1nc(-c2ccccc2Cl)cs1)c1ccc(N2CCOCC2)cc1F [compound 408] | − (−: inactive)
O=C(Nc1nc(-c2ccccc2)cs1)c1ccc(N2CCOCC2)cc1 [compound 359, 4-morpholino-N-(4-phenylthiazol-2-yl)benzamide] | + (+: >−5)
O=C(Nc1nc(-c2ccccc2Cl)cs1)c1ccc(C2CCS(=O)(=O)CC2)cc1 [compound 382, N-(4-(2-chlorophenyl)thiazol-2-yl)-4-(1,1-dioxidotetrahydro-2H-thiopyran-4-yl)benzamide] | +++ (+++: <−6)
O=C(Nc1nc(-c2cc(Cl)sc2Cl)cs1)c1ccc(Cl)cc1 [compound 311] | ++ (++: −5 to −6)
COc1ccc(C(=O)Nc2nc(-c3cnn(C)c3)cs2)cc1 [Compound 331, 4-methoxy-N-[4-(1-methylpyrazol-4-yl)thiazol-2-yl]benzamide] | + (+: >−5)
O=C(Nc1nc(-c2ccccc2Cl)cs1)c1cnc(N2CCOCC2)nc1 [compound 358, N-[4-(2-chlorophenyl)thiazol-2-yl]-2-morpholino-pyrimidine-5-carboxamide] | − (−: inactive)
Cc1ncccc1-c1csc(NC(=O)c2ccc(N3CCOCC3)cn2)n1 [compound 371, N-[4-(2-methyl-3-pyridyl)thiazol-2-yl]-5-morpholino-pyridine-2-carboxamide] | ++ (++: −5 to −6)
O=C(Nc1nc(-c2ccccc2Cl)cs1)C1CC(N2CCOCC2)C1 (centres unmarked) [Compound 421, (1s,3s)-N-(4-(2-chlorophenyl)thiazol-2-yl)-3-morpholinocyclobutane-1-carboxamide] | + (+: >−5)
O=C(Nc1nc(-c2ccccc2Cl)cs1)c1ccc(N2CCOCC2)cc1Cl [Compound 409, 2-chloro-N-(4-(2-chlorophenyl)thiazol-2-yl)-4-morpholinobenzamide] | ++ (++: −5 to −6)
CC(=O)N1CCN(c2ccc(C(=O)Nc3nc(-c4ccccc4CO)cs3)nc2)CC1 [compound 470, 5-(4-acetylpiperazin-1-yl)-N-(4-(2-(hydroxymethyl)phenyl)thiazol-2-yl)picolinamide] | +++ (+++: <−6)
CS(=O)(=O)N1CCN([C@H]2C[C@@H](C(=O)Nc3nc(-c4ccccc4Cl)cs3)C2)CC1 [compound 423] | − (−: inactive)
O=C(Nc1nc(-c2ccc(Cl)cc2Cl)cs1)c1ccc(Cl)cc1 [Compound 303, 4-chloro-N-(4-(2,4-dichlorophenyl)thiazol-2-yl)benzamide] | + (+: >−5)
